Values after ≈ are worked out from the molar mass of the structure shown. Active and inactive are the calls of the source. No cut-off for these calls is given here.
Tests used:
in vitro = conditions: mouse, liver microsomes
Mus musculus [1] = assay: Volume of distribution at steady state in BALB/c mouse at 10 mg/kg, iv and po; assay type: ADME, organism-based; parameters: dose 10 mg/kg, route oral; conditions: in vivo
[2] = Thermodynamic solubility of the compound in water; assay type: physicochemical
[3] = Plasma concentration in BALB/c mouse at 10 mg/kg, iv at 1 hr administered as bolus dose; assay type: ADME, organism-based; parameters: dose 10 mg/kg, route intravenous
Mus musculus [4] = assay: Oral bioavailability in BALB/c mouse at 10 mg/kg; assay type: ADME, organism-based; conditions: in vivo
Plasma = assay: Plasma protein binding in human; assay type: ADME, cell-free
[5] = Plasma concentration in BALB/c mouse at 10 mg/kg, iv at 6 hrs administered as bolus dose; assay type: ADME, organism-based; parameters: dose 10 mg/kg, route intravenous
[6] = target: Serine/threonine-protein kinase Chk2 (Homo sapiens, UniProt O96017)
Chain of Serine/threonine-protein kinase Chk2 (O96017 whole entry): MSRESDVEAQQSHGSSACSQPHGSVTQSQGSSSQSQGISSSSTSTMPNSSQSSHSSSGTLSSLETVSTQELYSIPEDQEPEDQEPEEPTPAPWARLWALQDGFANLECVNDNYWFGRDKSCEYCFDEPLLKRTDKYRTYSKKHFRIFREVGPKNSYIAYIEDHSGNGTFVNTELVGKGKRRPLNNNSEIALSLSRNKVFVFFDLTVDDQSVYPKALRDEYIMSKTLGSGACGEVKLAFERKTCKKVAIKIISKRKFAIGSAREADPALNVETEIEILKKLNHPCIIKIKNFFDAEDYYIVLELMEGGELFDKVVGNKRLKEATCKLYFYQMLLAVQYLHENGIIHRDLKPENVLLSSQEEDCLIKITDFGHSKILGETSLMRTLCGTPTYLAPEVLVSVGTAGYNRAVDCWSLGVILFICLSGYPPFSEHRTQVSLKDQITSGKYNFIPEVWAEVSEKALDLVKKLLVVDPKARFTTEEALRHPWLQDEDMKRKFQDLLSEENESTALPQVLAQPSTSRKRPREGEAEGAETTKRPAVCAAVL

Mus musculus [7] = assay: Clearance in BALB/c mouse at 10 mg/kg, iv and po; assay type: ADME, organism-based; parameters: dose 10 mg/kg, route oral; conditions: in vivo
Caco-2 = conditions: human
Description: Permeability across apical to basolateral side in human Caco2 cells

[8] = target: Voltage-gated inwardly rectifying potassium channel KCNH2 (Homo sapiens, UniProt Q12809)
Chain of Voltage-gated inwardly rectifying potassium channel KCNH2 (Q12809 whole entry): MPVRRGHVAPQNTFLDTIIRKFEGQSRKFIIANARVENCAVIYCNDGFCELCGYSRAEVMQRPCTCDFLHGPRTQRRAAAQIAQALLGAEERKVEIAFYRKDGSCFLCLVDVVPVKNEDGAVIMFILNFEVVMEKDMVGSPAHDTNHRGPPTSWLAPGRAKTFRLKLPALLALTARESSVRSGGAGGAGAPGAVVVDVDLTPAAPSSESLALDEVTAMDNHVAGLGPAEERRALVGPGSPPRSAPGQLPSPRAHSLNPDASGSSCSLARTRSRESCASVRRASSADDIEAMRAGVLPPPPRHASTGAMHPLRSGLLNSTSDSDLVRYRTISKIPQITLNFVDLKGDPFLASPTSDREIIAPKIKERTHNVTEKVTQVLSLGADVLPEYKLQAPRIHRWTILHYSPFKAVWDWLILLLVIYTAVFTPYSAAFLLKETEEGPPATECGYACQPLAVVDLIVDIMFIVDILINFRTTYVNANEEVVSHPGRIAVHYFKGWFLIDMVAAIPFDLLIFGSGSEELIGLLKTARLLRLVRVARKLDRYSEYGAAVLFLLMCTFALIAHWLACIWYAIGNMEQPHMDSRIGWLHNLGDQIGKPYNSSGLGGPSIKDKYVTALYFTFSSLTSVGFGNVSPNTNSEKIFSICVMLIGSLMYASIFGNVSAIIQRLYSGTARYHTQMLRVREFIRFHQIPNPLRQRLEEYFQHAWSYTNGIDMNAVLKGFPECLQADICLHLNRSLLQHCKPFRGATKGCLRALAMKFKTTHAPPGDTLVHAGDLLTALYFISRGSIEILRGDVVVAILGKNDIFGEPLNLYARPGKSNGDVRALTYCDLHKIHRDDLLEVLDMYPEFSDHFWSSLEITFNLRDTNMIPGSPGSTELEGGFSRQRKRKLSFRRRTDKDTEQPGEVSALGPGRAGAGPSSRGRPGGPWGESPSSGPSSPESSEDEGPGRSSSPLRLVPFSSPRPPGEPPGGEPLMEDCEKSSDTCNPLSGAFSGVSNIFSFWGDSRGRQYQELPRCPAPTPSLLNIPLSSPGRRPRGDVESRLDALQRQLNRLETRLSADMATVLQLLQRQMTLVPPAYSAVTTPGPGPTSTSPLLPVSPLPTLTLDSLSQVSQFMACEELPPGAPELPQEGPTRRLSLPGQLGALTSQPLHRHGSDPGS

[9] = Plasma concentration in BALB/c mouse at 10 mg/kg, po at 6 hrs; assay type: ADME, organism-based; parameters: dose 10 mg/kg, route oral
[10] = Drug uptake in human SW620 cells xenografted in athymic nude mouse at 160 mg/kg, po measured at 6 to 12 hrs in presence of gemcitabine; assay type: ADME, organism-based, SW-620; parameters: dose 160 mg/kg, route oral; conditions: in vivo
[11] = Aqueous solubility in phosphate buffer at pH 6.5; assay type: physicochemical
[12] = Toxicity in po dosed mouse; assay type: organism-based; conditions: in vivo
Mus musculus [13] = species: Mus musculus; conditions: SW-620, 160 mg/kg
[14] = Plasma concentration in BALB/c mouse at 10 mg/kg, po at 1 hr; assay type: ADME, organism-based; parameters: dose 10 mg/kg, route oral
[15] = target: Cyclin-dependent kinase 1 (Homo sapiens, UniProt P06493)
Chain of Cyclin-dependent kinase 1 (P06493 whole entry): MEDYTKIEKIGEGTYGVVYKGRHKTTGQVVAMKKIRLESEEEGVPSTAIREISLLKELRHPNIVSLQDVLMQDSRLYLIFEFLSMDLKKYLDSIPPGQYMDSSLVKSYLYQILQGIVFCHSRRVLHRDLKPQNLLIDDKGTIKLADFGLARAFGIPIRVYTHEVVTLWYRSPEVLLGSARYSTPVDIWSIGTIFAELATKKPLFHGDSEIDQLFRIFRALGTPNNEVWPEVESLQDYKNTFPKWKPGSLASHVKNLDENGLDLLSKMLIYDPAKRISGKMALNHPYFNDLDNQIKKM

Mus musculus [16] = species: Mus musculus; conditions: SW-620, 160 mg/kg; remark: listed apart in the source
[17] = target: T1, Serine/threonine-protein kinase Chk1 (Homo sapiens, UniProt O14757)
T1 sequence (O14757 whole entry): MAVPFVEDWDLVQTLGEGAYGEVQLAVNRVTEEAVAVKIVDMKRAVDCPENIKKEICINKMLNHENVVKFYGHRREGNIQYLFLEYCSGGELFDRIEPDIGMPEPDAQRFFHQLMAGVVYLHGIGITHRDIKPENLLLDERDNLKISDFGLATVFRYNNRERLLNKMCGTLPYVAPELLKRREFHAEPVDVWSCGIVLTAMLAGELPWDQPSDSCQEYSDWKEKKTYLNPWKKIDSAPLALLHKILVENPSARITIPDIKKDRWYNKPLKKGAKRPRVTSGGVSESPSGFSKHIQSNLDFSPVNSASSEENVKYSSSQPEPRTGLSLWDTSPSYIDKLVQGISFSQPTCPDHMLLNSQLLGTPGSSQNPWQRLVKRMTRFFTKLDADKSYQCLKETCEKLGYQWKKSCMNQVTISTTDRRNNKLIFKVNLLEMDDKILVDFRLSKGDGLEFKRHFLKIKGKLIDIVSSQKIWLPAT

hERG (KCNH2) = hERG (KCNH2) (Homo sapiens, UniProt Q12809); assay: Inhibition of human ERG overexpressed in HEK cells at 10 uM; assay type: cell-based, HEK293; conditions: HEK cells overexpressing human ERG
Chain of hERG (KCNH2) (Q12809 whole entry): as the sequence (Q12809 whole entry) above

SW-620 = assay: Antitumor activity against human SW620 cells xenografted in athymic mouse assessed as tumor growth delay at 100 mg/kg, iv tid for 4 days (reference value: 5.3 1.3); assay type: functional
HT-29 = assay: Antitumor activity against human HT-29 cells xenografted in athymic mouse assessed as tumor growth delay at 100 mg/kg, iv tid for 7 days (reference value: 8.8 4.8); assay type: functional
Calu-6 = assay: Antitumor activity against human Calu6 cells xenografted in athymic mouse assessed as tumor growth delay at 100 mg/kg, iv tid for 7 days (reference value: 6.9 1.6); assay type: functional
Mus musculus [18] = assay: Toxicity in athymic mouse xenografted with human SW620 cells assessed as body weight loss at 100 mg/kg, iv tid for 4 days; assay type: organism-based, SW-620; parameters: dose 100 mg/kg, route intravenous; conditions: in vivo, 96 h
Mus musculus [19] = assay: Toxicity in athymic mouse xenografted with human HT-29 cells assessed as body weight loss at 100 mg/kg, iv tid for 7 days; assay type: organism-based; parameters: dose 100 mg/kg, route intravenous; conditions: in vivo, 168 h
Mus musculus [20] = assay: Toxicity in athymic mouse xenografted with human Calu6 cells assessed as body weight loss at 100 mg/kg, iv tid for 7 days; assay type: organism-based, Calu-6; parameters: dose 100 mg/kg, route intravenous; conditions: in vivo, 168 h
Mus musculus [21] = assay: Inhibition of CHK1 autophosphorylation in human SW620 cells xenografted in athymic nude mouse at 300 mg/kg, po measured at 6 hrs by Western blot analysis in presence of gemcitabine; assay type: functional, organism-based; parameters: dose 300 mg/kg; conditions: SW-620
[22] = Drug uptake in human SW620 cells xenografted in athymic nude mouse at 300 mg/kg, po measured at 6 to 12 hrs in presence of gemcitabine; assay type: ADME, organism-based, SW-620; parameters: dose 300 mg/kg, route oral; conditions: in vivo
[23] = target: High affinity nerve growth factor receptor (Homo sapiens) (UniProt P04629); assay: Inhibition of human TRKA at 1 uM by radiometric assay in presence of ATP
Mus musculus [24] = assay: Toxicity in athymic mouse xenografted with human Calu6 cells assessed as body weight loss at 75 mg/kg, po tid for 7 days; assay type: organism-based, Calu-6; parameters: dose 75 mg/kg, route oral; conditions: in vivo, 168 h
Kv4.3/KchIP2 = Kv4.3/KchIP2 (Homo sapiens, UniProt Q9NS61+Q9UK17); assay: Inhibition of human Kv4.3/KchIP2 at 10 uM; assay type: protein-complex assay
Nav1.5 = Nav1.5 (Homo sapiens, UniProt Q14524); assay: Inhibition of human Nav1.5 at 10 uM
Mus musculus [25] = assay: Toxicity in athymic mouse xenografted with human HT-29 cells assessed as body weight loss at 75 mg/kg, po tid for 7 days; assay type: organism-based; parameters: dose 75 mg/kg, route oral; conditions: in vivo, 168 h
Cav1.2 = Cav1.2 (Homo sapiens, UniProt Q13936); assay: Inhibition of human Cav1.2 at 10 uM
Kir2.1 = Kir2.1 (Homo sapiens, UniProt P63252); assay: Inhibition of human Kir2.1 at 10 uM
Chain of Kir2.1 (P63252 whole entry): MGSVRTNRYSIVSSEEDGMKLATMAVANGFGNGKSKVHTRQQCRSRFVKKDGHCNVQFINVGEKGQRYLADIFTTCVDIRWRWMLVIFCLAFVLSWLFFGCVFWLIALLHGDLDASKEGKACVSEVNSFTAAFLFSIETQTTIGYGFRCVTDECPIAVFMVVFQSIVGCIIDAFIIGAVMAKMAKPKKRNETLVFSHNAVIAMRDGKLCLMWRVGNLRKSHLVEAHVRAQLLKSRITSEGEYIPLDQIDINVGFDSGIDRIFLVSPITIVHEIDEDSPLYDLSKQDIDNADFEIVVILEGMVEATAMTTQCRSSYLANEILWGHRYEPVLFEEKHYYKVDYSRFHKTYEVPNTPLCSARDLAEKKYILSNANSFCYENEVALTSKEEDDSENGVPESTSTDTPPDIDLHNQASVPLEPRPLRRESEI

[26] = target: AMP-activated protein kinase, AMPK (Homo sapiens) (UniProt P54646+O43741+P54619+Q9UGJ0+Q9Y478+Q13131+Q9UGI9); assay: Inhibition of human AMPK at 1 uM by radiometric assay in presence of ATP; assay type: protein-complex assay
[27] = target: Interleukin-1 receptor-associated kinase 1 (Homo sapiens) (UniProt P51617); assay: Inhibition of human IRAK1 at 1 uM by radiometric assay in presence of ATP
[28] = target: Ribosomal protein S6 kinase alpha-3 (Homo sapiens) (UniProt P51812); assay: Inhibition of human RSK2 at 1 uM by radiometric assay in presence of ATP
Chain of Ribosomal protein S6 kinase alpha-3 (Homo sapiens) (P51812 whole entry): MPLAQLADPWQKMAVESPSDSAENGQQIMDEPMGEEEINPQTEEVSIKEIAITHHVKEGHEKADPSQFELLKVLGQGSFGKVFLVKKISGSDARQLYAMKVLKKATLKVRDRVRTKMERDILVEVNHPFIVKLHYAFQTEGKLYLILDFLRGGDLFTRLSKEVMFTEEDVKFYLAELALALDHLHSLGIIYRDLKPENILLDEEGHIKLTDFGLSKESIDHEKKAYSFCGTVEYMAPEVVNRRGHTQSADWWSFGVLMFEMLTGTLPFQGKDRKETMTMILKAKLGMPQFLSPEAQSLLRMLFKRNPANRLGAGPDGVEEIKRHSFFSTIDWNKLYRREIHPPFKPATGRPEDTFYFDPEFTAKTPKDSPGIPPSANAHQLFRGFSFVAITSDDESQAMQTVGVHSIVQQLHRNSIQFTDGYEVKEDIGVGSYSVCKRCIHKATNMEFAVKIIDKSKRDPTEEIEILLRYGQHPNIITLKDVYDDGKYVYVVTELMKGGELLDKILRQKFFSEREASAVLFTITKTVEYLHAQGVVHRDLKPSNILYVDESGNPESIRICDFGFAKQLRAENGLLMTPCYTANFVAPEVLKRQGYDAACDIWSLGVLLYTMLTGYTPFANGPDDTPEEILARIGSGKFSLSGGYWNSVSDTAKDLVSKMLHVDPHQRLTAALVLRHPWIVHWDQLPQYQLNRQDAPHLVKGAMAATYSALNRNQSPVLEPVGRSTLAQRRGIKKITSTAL

[29] = target: Ribosomal protein S6 kinase alpha-1 (Homo sapiens) (UniProt Q15418); assay: Inhibition of human RSK1 at 1 uM by radiometric assay in presence of ATP
Mus musculus [30] = assay: Toxicity in athymic mouse xenografted with human SW620 cells assessed as body weight loss at 75 mg/kg, po tid for 4 days; assay type: organism-based, SW-620; parameters: dose 75 mg/kg, route oral; conditions: in vivo, 96 h
KCNQ1/MINK (IKs) = KCNQ1/MINK (IKs) (Homo sapiens, UniProt P15382+P51787); assay: Inhibition of human KCNQ1/MINK at 10 uM; assay type: protein-complex assay
[31] = target: Serine/threonine-protein kinase BRSK1 (Homo sapiens) (UniProt Q8TDC3); assay: Inhibition of human BRSK1 at 1 uM by radiometric assay in presence of ATP
Mus musculus [32] = assay: Inhibition of CHK1 in human SW620 cells xenografted in athymic nude mouse at 300 mg/kg, po measured at 12 hrs by Western blot analysis in presence of gemcitabine; assay type: functional, organism-based; parameters: dose 300 mg/kg; conditions: SW-620
[33] = target: Potassium voltage-gated channel subfamily A member 5 (Homo sapiens) (UniProt P22460); assay: Inhibition of human Kv1.5 at 10 uM
Chain of Potassium voltage-gated channel subfamily A member 5 (Homo sapiens) (P22460 whole entry): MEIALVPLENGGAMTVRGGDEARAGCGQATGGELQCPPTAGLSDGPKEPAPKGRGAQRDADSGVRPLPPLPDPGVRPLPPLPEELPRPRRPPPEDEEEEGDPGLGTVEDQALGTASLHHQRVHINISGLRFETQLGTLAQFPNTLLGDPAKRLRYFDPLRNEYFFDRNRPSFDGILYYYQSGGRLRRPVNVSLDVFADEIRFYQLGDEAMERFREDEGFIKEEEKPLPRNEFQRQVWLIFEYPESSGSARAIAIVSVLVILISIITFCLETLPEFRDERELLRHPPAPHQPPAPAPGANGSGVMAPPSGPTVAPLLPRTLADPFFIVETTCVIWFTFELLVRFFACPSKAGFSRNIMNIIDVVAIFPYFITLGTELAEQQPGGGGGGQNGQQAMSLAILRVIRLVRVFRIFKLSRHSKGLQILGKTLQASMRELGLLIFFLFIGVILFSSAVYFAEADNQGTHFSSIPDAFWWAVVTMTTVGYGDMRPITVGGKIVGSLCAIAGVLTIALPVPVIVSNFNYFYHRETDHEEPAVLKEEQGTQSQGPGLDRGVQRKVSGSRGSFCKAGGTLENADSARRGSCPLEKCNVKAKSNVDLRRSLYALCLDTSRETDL

[34] = target: Potassium/sodium hyperpolarization-activated cyclic nucleotide-gated channel 4 (Homo sapiens) (UniProt Q9Y3Q4); assay: Inhibition of human HCN4 at 10 uM

Structure (SMILES): CNc1cc(Nc2cnc(C#N)c(O[C@H](C)CN(C)C)n2)ncc1-c1cnn(C)c1
- metabolised at 0.5 h (in vitro): 30%
- Vdss (Mus musculus [1]): 0.209 L
- Therm_solubility [2]: 100 µg/mL
- concentration at 1 h [3]: 910 nM
- F (Mus musculus [4]): 48%
- PPB (Plasma): 70%
- concentration at 6 h [5]: 45 nM
- IC50 [6]: 3.2 µM
- CL (Mus musculus [7]): 0.132 L/h
- permeability (Caco-2): 8.8 ×10⁻⁶ cm/s
- IC50 [8]: 12 µM
- concentration at 6 h [9]: 57 nM
- Drug uptake [10]: Active
- solubility thermodynamic [11]: > 8000 µg/mL
- MTD [12]: 160 mg/kg
- inhibition (Mus musculus [13]): inactive
- concentration at 1 h [14]: 555 nM
- IC50 [15]: 10 µM
- inhibition (Mus musculus [16]): Active

Structure (SMILES): C[C@H](CN(C)C)Oc1nc(Nc2cc3cccc(Cl)c3cn2)cnc1C#N
- IC50 [8]: 5 µM

Structure (SMILES): COc1cc(Nc2cnc(C#N)c(O[C@@H]3CCNC3)n2)ncc1-c1cnn(C)c1
- IC50 [17]: < 0.001 µM

Structure (SMILES): CNc1cc(Nc2cnc(C#N)c(O[C@H](C)CN(C)C)n2)ncc1C1CC1
- metabolised at 0.5 h (in vitro): 42%
- concentration at 1 h [3]: 417 nM
- IC50 [17]: 0.026 µM
- concentration at 6 h [5]: 29 nM
- IC50 [8]: 6 µM
- concentration at 6 h [9]: 8 nM
- concentration at 1 h [14]: 80 nM

Structure (SMILES): COC(=O)c1cnc(Nc2cnc(C#N)c(O[C@@H]3CCNC3)n2)cc1SC
- IC50 [17]: 0.018 µM
- inhibition at 10 µM (hERG (KCNH2)): 25%

Structure (SMILES): Nc1ccn([C@@H]2O[C@H](CO)[C@@H](O)C2(F)F)c(=O)n1 [GEMCITABINE]
- Time (SW-620): 1.6 days
- Time (HT-29): 2.3 days
- Time (Calu-6): 7.2 days
- Activity (Mus musculus [18]): Non-toxic
- Activity (Mus musculus [19]): Non-toxic
- Activity (Mus musculus [20]): Non-toxic

Structure (SMILES): COc1cc(Nc2cnc(C#N)c(O[C@H](C)CN(C)C)n2)ncc1-c1cnn(C)c1
- inhibition (Mus musculus [21]): Active
- Drug uptake [22]: Active
- metabolised at 0.5 h (in vitro): 38%
- inhibition [23]: > 80%
- Vdss (Mus musculus [1]): 0.113 L
- Activity (Mus musculus [24]): Non-toxic
- inhibition at 10 µM (Kv4.3/KchIP2): < 25%
- Therm_solubility [2]: 70 µg/mL
- inhibition at 10 µM (Nav1.5): < 25%
- concentration at 1 h [3]: 1850 nM
- IC50 [17]: 0.0077 µM
- F (Mus musculus [4]): 61%
- Activity (Mus musculus [25]): Non-toxic
- PPB (Plasma): 82%
- concentration at 6 h [5]: 27 nM
- inhibition at 10 µM (Cav1.2): < 25%
- inhibition at 10 µM (Kir2.1): < 25%
- inhibition [26]: > 80%
- inhibition [27]: > 80%
- IC50 [6]: > 10 µM
- clearance (Mus musculus [7]): 0.125 L/h
- inhibition [28]: > 80%
- inhibition [29]: > 80%
- Activity (Mus musculus [30]): Non-toxic
- inhibition at 10 µM (KCNQ1/MINK (IKs)): < 25%
- permeability (Caco-2): 29 ×10⁻⁶ cm/s
- inhibition [31]: > 80%
- IC50 [8]: 5 µM
- concentration at 6 h [9]: 52 nM
- inhibition (Mus musculus [32]): Active
- inhibition [33]: < 25%
- solubility thermodynamic [11]: 6200 µg/mL (≈ 15.2 mM)
- MTD [12]: > 300 mg/kg
- concentration at 1 h [14]: 1120 nM
- IC50 [15]: > 10 µM
- inhibition [34]: < 25%

Structure (SMILES): CNc1ccnc(Nc2cnc(C#N)c(O[C@H](C)CN(C)C)n2)c1
- IC50 [17]: 0.097 µM
- inhibition at 10 µM (hERG (KCNH2)): 71%

Structure (SMILES): CNc1cc(Nc2cnc(C#N)c(O[C@@H]3CCNC3)n2)ncc1-c1cnn(C)c1
- inhibition at 10 µM (hERG (KCNH2)): 22%

Structure (SMILES): COC(=O)c1cnc(Nc2cnc(C#N)c(O[C@@H]3CCNC3)n2)cc1N(C)C
- IC50 [17]: 0.0088 µM
- IC50 [8]: 30 µM

Structure (SMILES): CNc1cc(Nc2cnc(C#N)c(O[C@H](C)CN(C)C)n2)ncc1C(F)(F)F
- metabolised at 0.5 h (in vitro): 43%
- concentration at 1 h [3]: 1040 nM
- IC50 [17]: 0.021 µM
- concentration at 6 h [5]: 33 nM
- permeability (Caco-2): < 4.6 ×10⁻⁶ cm/s
- IC50 [8]: 1 µM
- concentration at 6 h [9]: 26 nM
- concentration at 1 h [14]: 809 nM
